Test results published in article PMC9856672, “SGC-CAMKK2-1: A Chemical Probe for CAMKK2” (Cells, 2023).

Assays:
LYN = target: T1, LYN (Homo sapiens, UniProt P07948); experiment: KINOMEscan 1 μM, LYN; type: binding; conditions: 1000 nM; Entrez LYN; read-out: Percent Control
T1 construct: purchased Eurofins DiscoverX KINOMEscan
Description: (§1) Supplement cells-12-00287-s001.zip/File S2. KinomeScan data for the CAMKK2 probe and negative control.xlsx, sheet "SGC-CAMKK2-1" | column: Percent Control

INSR = target: T2, INSR (Homo sapiens, UniProt P06213); experiment: KINOMEscan 1 μM, INSR; type: binding; conditions: 1000 nM; Entrez INSR; read-out: Percent Control
T2 construct: purchased Eurofins DiscoverX KINOMEscan
Description: as §1

PIK3CA(E545A) [1] = target: T3, PIK3CA(E545A) (Homo sapiens, UniProt P42336, E545A); experiment: DiscoverX KINOMEscan binding assay at 1 μM, PIK3CA(E545A); conditions: Compound Concentration 1000 nM, read-out: Percent Control
T3 construct: purchased Eurofins DiscoverX KINOMEscan
T3 sequence (P42336 whole entry E545A): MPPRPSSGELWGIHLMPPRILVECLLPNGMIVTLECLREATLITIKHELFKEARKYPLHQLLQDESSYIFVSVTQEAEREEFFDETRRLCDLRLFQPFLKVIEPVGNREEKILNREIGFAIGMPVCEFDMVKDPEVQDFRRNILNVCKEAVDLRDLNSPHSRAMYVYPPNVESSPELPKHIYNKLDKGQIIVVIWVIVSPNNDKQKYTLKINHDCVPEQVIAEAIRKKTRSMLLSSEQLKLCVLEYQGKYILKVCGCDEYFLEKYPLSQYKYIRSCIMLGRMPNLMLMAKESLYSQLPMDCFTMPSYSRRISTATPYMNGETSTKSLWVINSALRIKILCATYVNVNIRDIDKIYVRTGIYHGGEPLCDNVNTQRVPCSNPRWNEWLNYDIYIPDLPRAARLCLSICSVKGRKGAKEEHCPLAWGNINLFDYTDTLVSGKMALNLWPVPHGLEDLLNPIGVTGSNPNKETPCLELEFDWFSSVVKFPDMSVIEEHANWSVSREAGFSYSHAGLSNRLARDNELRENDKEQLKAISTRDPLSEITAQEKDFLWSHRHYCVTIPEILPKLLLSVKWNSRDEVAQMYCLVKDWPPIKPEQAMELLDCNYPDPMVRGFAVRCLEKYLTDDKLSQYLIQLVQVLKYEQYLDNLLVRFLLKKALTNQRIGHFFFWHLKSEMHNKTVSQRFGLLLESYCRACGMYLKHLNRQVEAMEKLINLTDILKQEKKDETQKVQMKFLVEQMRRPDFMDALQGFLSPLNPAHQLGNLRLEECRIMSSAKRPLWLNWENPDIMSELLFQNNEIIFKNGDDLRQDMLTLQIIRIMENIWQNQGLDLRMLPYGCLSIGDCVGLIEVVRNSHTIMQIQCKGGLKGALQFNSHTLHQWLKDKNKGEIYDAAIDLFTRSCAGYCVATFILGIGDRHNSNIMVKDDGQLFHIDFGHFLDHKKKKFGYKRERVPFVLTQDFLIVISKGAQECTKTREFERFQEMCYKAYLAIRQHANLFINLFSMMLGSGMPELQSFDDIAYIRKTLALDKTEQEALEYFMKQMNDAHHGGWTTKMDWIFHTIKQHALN
Description: as §1

EGFR(L861Q) = target: T4, EGFR(L861Q) (Homo sapiens, UniProt P00533, L861Q); experiment: KINOMEscan 1 μM, EGFR(L861Q); type: binding; conditions: 1000 nM; Entrez EGFR; read-out: Percent Control
T4 construct: purchased Eurofins DiscoverX KINOMEscan
Description: as §1

CLK2 = target: T5, CLK2 (Homo sapiens, UniProt P49760); experiment: KINOMEscan 1 μM, CLK2; type: binding; conditions: 1000 nM; Entrez CLK2; read-out: Percent Control
T5 construct: purchased Eurofins DiscoverX KINOMEscan
Description: as §1

MEK4 = target: T6, MEK4 (Homo sapiens, UniProt P45985); experiment: KINOMEscan 1 μM, MEK4; type: binding; conditions: 1000 nM; Entrez MAP2K4; read-out: Percent Control
T6 construct: purchased Eurofins DiscoverX KINOMEscan
Description: as §1

LATS2 = target: T7, LATS2 (Homo sapiens, UniProt Q9NRM7); experiment: KINOMEscan 1 μM, LATS2; type: binding; conditions: 1000 nM; Entrez LATS2; read-out: Percent Control
T7 construct: purchased Eurofins DiscoverX KINOMEscan
Description: as §1

SNARK = target: T8, SNARK (Homo sapiens, UniProt Q9H093); experiment: DiscoverX KINOMEscan binding assay at 1 μM, SNARK; conditions: SNARK (NUAK2); Compound Concentration 1000 nM; read-out: Percent Control
T8 construct: purchased Eurofins DiscoverX KINOMEscan
Description: as §1

PKNB(M.tuberculosis) = target: T9, PKNB(M.tuberculosis) (Mycobacterium tuberculosis, UniProt P9WI81); experiment: KINOMEscan 1 μM, PKNB(M.tuberculosis); type: binding; conditions: 1000 nM; Entrez pknB; read-out: Percent Control
T9 construct: purchased Eurofins DiscoverX KINOMEscan
Description: as §1

SgK110 = target: T10, SgK110 (Homo sapiens, UniProt P0C264); experiment: KINOMEscan 1 μM, SgK110; type: binding; conditions: 1000 nM; Entrez SgK110; read-out: Percent Control
T10 construct: purchased Eurofins DiscoverX KINOMEscan
T10 sequence (P0C264 whole entry): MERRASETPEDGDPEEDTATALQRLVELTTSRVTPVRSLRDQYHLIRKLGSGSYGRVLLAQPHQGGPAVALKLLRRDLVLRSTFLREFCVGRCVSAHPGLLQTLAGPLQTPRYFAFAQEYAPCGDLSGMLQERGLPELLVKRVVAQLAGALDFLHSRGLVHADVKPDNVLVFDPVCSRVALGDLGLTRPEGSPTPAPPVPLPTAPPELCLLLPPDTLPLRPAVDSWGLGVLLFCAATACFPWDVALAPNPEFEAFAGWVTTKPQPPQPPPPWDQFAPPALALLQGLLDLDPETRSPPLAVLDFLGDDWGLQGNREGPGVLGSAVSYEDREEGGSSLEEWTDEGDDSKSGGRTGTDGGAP
Description: as §1

STK39 = target: T11, STK39 (Homo sapiens, UniProt Q9UEW8); experiment: KINOMEscan 1 μM, STK39; type: binding; conditions: 1000 nM; Entrez STK39; read-out: Percent Control
T11 construct: purchased Eurofins DiscoverX KINOMEscan
Description: as §1

HIPK3 = target: T12, HIPK3 (Homo sapiens, UniProt Q9H422); experiment: KINOMEscan 1 μM, HIPK3; type: binding; conditions: 1000 nM; Entrez HIPK3; read-out: Percent Control
T12 construct: purchased Eurofins DiscoverX KINOMEscan
T12 sequence (Q9H422 whole entry): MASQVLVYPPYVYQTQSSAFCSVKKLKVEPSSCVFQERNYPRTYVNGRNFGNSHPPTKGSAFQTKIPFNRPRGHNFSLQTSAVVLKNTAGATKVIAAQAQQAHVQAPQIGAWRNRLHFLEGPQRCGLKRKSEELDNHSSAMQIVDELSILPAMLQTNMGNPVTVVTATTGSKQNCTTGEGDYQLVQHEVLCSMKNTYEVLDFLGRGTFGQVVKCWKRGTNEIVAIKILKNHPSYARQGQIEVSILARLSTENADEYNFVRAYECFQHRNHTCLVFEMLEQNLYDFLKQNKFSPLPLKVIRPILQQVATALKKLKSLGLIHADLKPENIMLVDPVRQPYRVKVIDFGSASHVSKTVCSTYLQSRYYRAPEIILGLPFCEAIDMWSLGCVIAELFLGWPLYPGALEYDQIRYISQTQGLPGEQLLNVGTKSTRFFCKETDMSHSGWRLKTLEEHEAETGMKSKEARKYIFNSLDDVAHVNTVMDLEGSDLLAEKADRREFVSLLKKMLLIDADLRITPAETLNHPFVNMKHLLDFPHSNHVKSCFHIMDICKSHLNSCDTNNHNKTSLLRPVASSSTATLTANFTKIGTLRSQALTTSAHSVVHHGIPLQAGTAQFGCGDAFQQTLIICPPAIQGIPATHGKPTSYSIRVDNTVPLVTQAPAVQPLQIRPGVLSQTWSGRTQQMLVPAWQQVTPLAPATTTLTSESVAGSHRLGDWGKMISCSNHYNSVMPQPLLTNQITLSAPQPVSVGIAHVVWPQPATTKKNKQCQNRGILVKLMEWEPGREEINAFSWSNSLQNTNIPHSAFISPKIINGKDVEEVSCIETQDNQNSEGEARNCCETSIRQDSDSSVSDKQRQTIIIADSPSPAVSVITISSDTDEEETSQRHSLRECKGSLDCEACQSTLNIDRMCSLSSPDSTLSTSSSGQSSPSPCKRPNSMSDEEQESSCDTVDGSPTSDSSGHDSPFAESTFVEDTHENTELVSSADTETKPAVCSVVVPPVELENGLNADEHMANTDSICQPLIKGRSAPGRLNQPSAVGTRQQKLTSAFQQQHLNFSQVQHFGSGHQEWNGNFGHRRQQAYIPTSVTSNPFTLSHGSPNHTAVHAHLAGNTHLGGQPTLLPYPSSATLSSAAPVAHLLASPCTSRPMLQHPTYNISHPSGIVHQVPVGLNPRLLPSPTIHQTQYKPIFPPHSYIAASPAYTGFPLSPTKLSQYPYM
Description: as §1

MST1 = target: T13, MST1 (Homo sapiens, UniProt Q13043); experiment: KINOMEscan 1 μM, MST1; type: binding; conditions: 1000 nM; Entrez STK4; read-out: Percent Control
T13 construct: purchased Eurofins DiscoverX KINOMEscan
Description: as §1

EPHB4 = target: T14, EPHB4 (Homo sapiens, UniProt P54760); experiment: KINOMEscan 1 μM, EPHB4; type: binding; conditions: 1000 nM; Entrez EPHB4; read-out: Percent Control
T14 construct: purchased Eurofins DiscoverX KINOMEscan
Description: as §1

NEK4 = target: T15, NEK4 (Homo sapiens, UniProt P51957); experiment: KINOMEscan at 1 μM, NEK4; type: binding; conditions: 1000 nM, read-out: Percent Control
T15 construct: purchased Eurofins DiscoverX KINOMEscan
Description: (§2) Supplement cells-12-00287-s001.zip/File S2. KinomeScan data for the CAMKK2 probe and negative control.xlsx, sheet "SGC-CAMKK2-1N" | column: Percent Control

PIM3 = target: T16, PIM3 (Homo sapiens, UniProt Q86V86); experiment: KINOMEscan at 1 μM, PIM3; type: binding; conditions: 1000 nM, read-out: Percent Control
T16 construct: purchased Eurofins DiscoverX KINOMEscan
Description: as §2

CDK9 = target: T17, CDK9 (Homo sapiens, UniProt P50750); experiment: KINOMEscan at 1 μM, CDK9; type: binding; conditions: 1000 nM, read-out: Percent Control
T17 construct: purchased Eurofins DiscoverX KINOMEscan
Description: as §2

CSNK1A1L = target: T18, CSNK1A1L (Homo sapiens, UniProt Q8N752); experiment: KINOMEscan at 1 μM, CSNK1A1L; type: binding; conditions: 1000 nM, read-out: Percent Control
T18 construct: purchased Eurofins DiscoverX KINOMEscan
T18 sequence (Q8N752 whole entry): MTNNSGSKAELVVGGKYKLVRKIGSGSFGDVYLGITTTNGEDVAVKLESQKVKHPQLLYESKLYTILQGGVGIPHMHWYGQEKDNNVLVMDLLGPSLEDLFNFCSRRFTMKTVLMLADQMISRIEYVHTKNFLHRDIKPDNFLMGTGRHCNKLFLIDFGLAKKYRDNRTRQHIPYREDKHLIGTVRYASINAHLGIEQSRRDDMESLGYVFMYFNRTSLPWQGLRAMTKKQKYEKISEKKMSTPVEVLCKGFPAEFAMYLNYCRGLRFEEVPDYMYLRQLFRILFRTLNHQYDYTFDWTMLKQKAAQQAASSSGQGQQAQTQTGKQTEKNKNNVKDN
Description: as §2

DRAK2 = target: T19, DRAK2 (Homo sapiens, UniProt O94768); experiment: KINOMEscan at 1 μM, DRAK2; type: binding; conditions: 1000 nM, read-out: Percent Control
T19 construct: purchased Eurofins DiscoverX KINOMEscan
Description: as §2

MYLK = target: T20, MYLK (Homo sapiens, UniProt Q15746); experiment: KINOMEscan at 1 μM, MYLK; type: binding; conditions: 1000 nM, read-out: Percent Control
T20 construct: purchased Eurofins DiscoverX KINOMEscan
Description: as §2

NDR1 = target: T21, NDR1 (Homo sapiens, UniProt Q15208); experiment: KINOMEscan at 1 μM, NDR1; type: binding; conditions: 1000 nM, read-out: Percent Control
T21 construct: purchased Eurofins DiscoverX KINOMEscan
T21 sequence (Q15208 whole entry): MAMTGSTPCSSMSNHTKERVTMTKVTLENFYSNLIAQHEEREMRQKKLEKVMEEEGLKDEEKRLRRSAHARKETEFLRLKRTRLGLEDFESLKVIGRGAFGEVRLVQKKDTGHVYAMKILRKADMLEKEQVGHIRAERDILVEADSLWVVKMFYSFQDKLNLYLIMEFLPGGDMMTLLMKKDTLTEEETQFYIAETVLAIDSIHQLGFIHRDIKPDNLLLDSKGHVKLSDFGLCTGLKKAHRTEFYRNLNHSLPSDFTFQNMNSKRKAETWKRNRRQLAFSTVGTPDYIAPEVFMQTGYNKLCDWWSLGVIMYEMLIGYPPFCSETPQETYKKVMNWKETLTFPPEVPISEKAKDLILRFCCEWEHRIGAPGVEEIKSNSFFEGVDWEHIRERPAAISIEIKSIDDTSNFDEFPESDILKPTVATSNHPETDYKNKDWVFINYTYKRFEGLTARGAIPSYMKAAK
Description: as §2

RAF1 = target: T22, RAF1 (Homo sapiens, UniProt P04049); experiment: KINOMEscan at 1 μM, RAF1; type: binding; conditions: 1000 nM, read-out: Percent Control
T22 construct: purchased Eurofins DiscoverX KINOMEscan
Description: as §2

PIK3CA(E545A) [2] = target: T3, PIK3CA(E545A); experiment: KINOMEscan at 1 μM, PIK3CA(E545A); type: binding; conditions: 1000 nM, read-out: Percent Control
Description: as §2

ERBB3 = target: T23, ERBB3 (Homo sapiens, UniProt P21860); experiment: KINOMEscan at 1 μM, ERBB3; type: binding; conditions: 1000 nM, read-out: Percent Control
T23 construct: purchased Eurofins DiscoverX KINOMEscan
Description: as §2

PCTK1 = target: T24, PCTK1 (Homo sapiens, UniProt Q00536); experiment: KINOMEscan at 1 μM, PCTK1; type: binding; conditions: 1000 nM, read-out: Percent Control
T24 construct: purchased Eurofins DiscoverX KINOMEscan
Description: as §2

MLK3 = target: T25, MLK3 (Homo sapiens, UniProt Q16584); experiment: KINOMEscan binding assay at 1 μM, MLK3; conditions: Compound Concentration 1000 nM; read-out: Percent Control
T25 construct: purchased Eurofins DiscoverX KINOMEscan
Description: as §2

BRAF = target: T26, BRAF (Homo sapiens, UniProt P15056); experiment: KINOMEscan at 1 μM, BRAF; type: binding; conditions: 1000 nM, read-out: Percent Control
T26 construct: purchased Eurofins DiscoverX KINOMEscan
Description: as §2

YSK1 = target: T27, YSK1 (Homo sapiens, UniProt O00506); experiment: KINOMEscan at 1 μM, YSK1; type: binding; conditions: 1000 nM, read-out: Percent Control
T27 construct: purchased Eurofins DiscoverX KINOMEscan
Description: as §2

PFTK1 = target: T28, PFTK1 (Homo sapiens, UniProt O94921); experiment: KINOMEscan binding assay at 1 μM, PFTK1; conditions: Compound Concentration 1000 nM; read-out: Percent Control
T28 construct: purchased Eurofins DiscoverX KINOMEscan
Description: as §2

EPHB2 = target: T29, EPHB2 (Homo sapiens, UniProt P29323); experiment: KINOMEscan binding assay at 1 μM, EPHB2; conditions: Compound Concentration 1000 nM; read-out: Percent Control
T29 construct: purchased Eurofins DiscoverX KINOMEscan
T29 sequence (P29323 19-1055): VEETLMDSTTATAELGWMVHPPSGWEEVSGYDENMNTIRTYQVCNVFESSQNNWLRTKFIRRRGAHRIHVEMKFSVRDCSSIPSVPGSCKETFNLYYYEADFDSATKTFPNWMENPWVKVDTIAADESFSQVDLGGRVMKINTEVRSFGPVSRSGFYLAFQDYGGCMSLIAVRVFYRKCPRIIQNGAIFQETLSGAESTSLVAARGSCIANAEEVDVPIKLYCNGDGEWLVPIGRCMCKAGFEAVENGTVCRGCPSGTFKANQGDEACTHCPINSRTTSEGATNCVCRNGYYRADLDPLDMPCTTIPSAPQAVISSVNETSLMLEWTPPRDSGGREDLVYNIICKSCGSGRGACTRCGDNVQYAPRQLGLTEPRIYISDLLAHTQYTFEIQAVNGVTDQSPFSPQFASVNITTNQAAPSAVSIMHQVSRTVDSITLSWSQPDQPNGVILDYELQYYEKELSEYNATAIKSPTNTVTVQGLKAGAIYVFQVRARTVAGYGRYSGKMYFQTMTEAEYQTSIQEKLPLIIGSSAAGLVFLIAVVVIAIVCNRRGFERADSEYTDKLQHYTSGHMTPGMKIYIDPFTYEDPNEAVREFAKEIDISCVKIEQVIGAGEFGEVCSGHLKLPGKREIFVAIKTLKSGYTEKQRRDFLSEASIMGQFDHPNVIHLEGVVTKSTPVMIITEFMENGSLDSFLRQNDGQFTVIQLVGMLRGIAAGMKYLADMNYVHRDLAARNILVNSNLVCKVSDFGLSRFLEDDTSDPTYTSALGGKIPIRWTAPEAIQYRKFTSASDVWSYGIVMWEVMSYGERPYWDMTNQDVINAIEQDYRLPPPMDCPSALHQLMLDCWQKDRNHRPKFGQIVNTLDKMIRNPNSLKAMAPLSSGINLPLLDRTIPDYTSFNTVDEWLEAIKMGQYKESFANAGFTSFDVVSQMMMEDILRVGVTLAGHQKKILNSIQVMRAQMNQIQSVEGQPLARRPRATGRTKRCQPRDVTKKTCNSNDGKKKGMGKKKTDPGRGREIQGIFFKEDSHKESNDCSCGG
Description: as §2

PAK6 = target: T30, PAK6 (Homo sapiens, UniProt Q9NQU5); experiment: KINOMEscan at 1 μM, PAK6; type: binding; conditions: 1000 nM, read-out: Percent Control
T30 construct: purchased Eurofins DiscoverX KINOMEscan
Description: as §2

TGFBR2 = target: T31, TGFBR2 (Homo sapiens, UniProt P37173); experiment: KINOMEscan binding assay at 1 μM, TGFBR2; conditions: Compound Concentration 1000 nM; read-out: Percent Control
T31 construct: purchased Eurofins DiscoverX KINOMEscan
T31 sequence (P37173 23-567): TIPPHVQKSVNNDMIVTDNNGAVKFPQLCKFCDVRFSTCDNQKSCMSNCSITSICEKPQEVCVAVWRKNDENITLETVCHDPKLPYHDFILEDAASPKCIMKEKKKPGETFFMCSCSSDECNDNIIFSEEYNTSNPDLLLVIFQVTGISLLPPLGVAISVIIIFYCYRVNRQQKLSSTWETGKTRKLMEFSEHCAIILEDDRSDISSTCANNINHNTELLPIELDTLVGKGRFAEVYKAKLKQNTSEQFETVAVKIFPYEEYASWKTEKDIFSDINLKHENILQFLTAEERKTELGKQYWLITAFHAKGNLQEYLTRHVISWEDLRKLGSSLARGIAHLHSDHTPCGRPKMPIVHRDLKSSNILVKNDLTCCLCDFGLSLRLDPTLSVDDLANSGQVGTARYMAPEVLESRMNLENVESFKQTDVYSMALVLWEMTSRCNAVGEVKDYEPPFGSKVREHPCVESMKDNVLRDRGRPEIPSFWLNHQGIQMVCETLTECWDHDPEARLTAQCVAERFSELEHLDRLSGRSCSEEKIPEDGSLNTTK
Description: as §2

SLK = target: T32, SLK (Homo sapiens, UniProt Q9H2G2); experiment: KINOMEscan binding assay at 1 μM, SLK; conditions: Compound Concentration 1000 nM; read-out: Percent Control
T32 construct: purchased Eurofins DiscoverX KINOMEscan
Description: as §2

YES = target: T33, YES (Homo sapiens, UniProt P07947); experiment: KINOMEscan at 1 μM, YES; type: binding; conditions: 1000 nM, read-out: Percent Control
T33 construct: purchased Eurofins DiscoverX KINOMEscan
Description: as §2

BRAF(V600E) = target: T34, BRAF(V600E) (Homo sapiens, UniProt P15056, V600E); experiment: KINOMEscan at 1 μM, BRAF(V600E); type: binding; conditions: 1000 nM, read-out: Percent Control
T34 construct: purchased Eurofins DiscoverX KINOMEscan
Description: as §2

For `Cc1cccc(-c2cnc3occ(-c4ccc(C(=O)O)c(C5CCCC5)c4)c3c2)c1` [SGC-CAMKK2-1 (YL-36)], the remaining binding at 1 µM (LYN) was 100%, the remaining binding at 1 µM (INSR) was 77% and the remaining binding at 1 µM (PIK3CA(E545A) [1]) was 100%. The remaining binding at 1 µM (EGFR(L861Q)) was 47%, the remaining binding at 1 µM (CLK2) was 79% and the remaining binding at 1 µM (MEK4) was 100%. It also gave a remaining binding at 1 µM (LATS2) of 72%, a remaining binding at 1 µM (SNARK) of 100% and a remaining binding at 1 µM (PKNB(M.tuberculosis)) of 90%. For the same compound, the remaining binding at 1 µM (SgK110) was 57%, the remaining binding at 1 µM (STK39) was 64% and the remaining binding at 1 µM (HIPK3) was 100%. For the same compound, the remaining binding at 1 µM (MST1) was 100% and the remaining binding at 1 µM (EPHB4) was 98%.

In the case of `O=C(O)c1ccc(-c2coc3ncc(-c4ccccc4)cc23)cc1Cl` [SGC-CAMKK2-1N (UNC-YL-83)], the remaining binding at 1 µM (NEK4) is reported as 66%, the remaining binding at 1 µM (PIM3) is reported as 66% and the remaining binding at 1 µM (CDK9) is reported as 89%. For the same compound, the remaining binding at 1 µM (CSNK1A1L) was 99%, the remaining binding at 1 µM (DRAK2) was 90% and the remaining binding at 1 µM (MYLK) was 69%. It also gave a remaining binding at 1 µM (NDR1) of 87%, a remaining binding at 1 µM (RAF1) of 79% and a remaining binding at 1 µM (PIK3CA(E545A) [2]) of 59%. For the same compound, the remaining binding at 1 µM (ERBB3) was 64%, the remaining binding at 1 µM (PCTK1) was 83% and the remaining binding at 1 µM (MLK3) was 100%. For the same compound, the remaining binding at 1 µM (BRAF) was 84%, the remaining binding at 1 µM (YSK1) was 66% and the remaining binding at 1 µM (PFTK1) was 100%. For the same compound, the remaining binding at 1 µM (EPHB2) was 100%, the remaining binding at 1 µM (PAK6) was 63% and the remaining binding at 1 µM (TGFBR2) was 100%. It also gave a remaining binding at 1 µM (SLK) of 100%, a remaining binding at 1 µM (YES) of 87% and a remaining binding at 1 µM (BRAF(V600E)) of 87%.
